pIC50: −log10 of the molar value.
Key:
[1] = test system: phosphorylated ERK1/2 in A-375 tumor; assay: Intratumor phosphorylated ERK inhibitory activity in malignant melanoma cell A-375 cancer-bearing rat; format: in vivo; conditions: phosphorylated ERK1/2 in A-375 tumor of nude rat, 25 mg/kg oral, 4 hrs after administration
Procedure: Human malignant melanoma cell A-375 (purchased from ATCC) was transplanted into 5-week-old nude rat (F344/N Jcl-mu/mu female (CLEA Japan, Inc.)) at 1.0×10^7 cells by subcutaneous injection. After 2-5 weeks from the transplantation, a test compound dissolved in 5% DMSO, 10% Cremophor, 20% PEG-400 and 65% distilled water was orally administered to rats having an engrafted tumor with a tumor volume of 200-800 mm^3 at a dose of 25 mg/kg body weight. After 4 hrs from the administration of the test compound, the tumor was collected under ether anesthesia and the tumor was homogenized in RIPA buffer (1% NP-40, 0.5% sodium deoxycholate, 1% SDS, 97.5% DPBS (GIBCO) with Protease Inhibitor Cocktail Set 3 (calbiochem) and Phosphatase Inhibitor Cocktail 2 (Sigma)). The protein in the tumor lysate was quantified using BCA Protein assay kit (Thermo), and the protein amount in the tumor lysate was adjusted to 1.25 μg/μL. 2×SDS sample buffer was added to the above-mentioned protein solution and the mixture was treated at 95° C. for 5 min.
Thereafter, SDS-PAGE was performed and the protein was transferred onto Sequi-Blot PVDF Membrane (Bio-Rad) by the Western blot method. The membrane was blocked with 5% (w/v) Block-Ace solution dissolved in phosphate buffered saline and reacted overnight with anti-phosphorylated ERK1/2 (Thr202/Tyr204) (Cell Signaling #9101) diluted 1000-fold with phosphate buffered saline containing 0.4% (w/v) Block-Ace. The membrane was washed with phosphate buffered saline containing 0.1% Tween20 (Wako Pure Chemical Industries, Ltd.), and reacted with HRP-labeled rabbit IgG polyclonal antibody (Cell Signaling #7074) diluted 1000-fold with phosphate buffered saline containing 0.4% Block-Ace for 1 hr at room temperature. […]
(Amersham Biosciences), and detected with luminoimage analyzer LAS-1000 (Fuji Film). The phosphorylated ERK1/2 protein inhibitory rate (%) of the test compound was calculated by the following formula. Inhibitory rate (%)=(1−(luminescence of test compound−blank)÷(luminescence of control group−blank))×100

[2] = test system: MEK1/2 phosphorylation in human colon cancer cell HT-29; assay: Colon cancer cell HT-29 intracellular MEK phosphorylation inhibitory activity in vitro; format: cell-based; conditions: HT-29 cells; for pIC50: 2 hrs treatment, phosphorylated MEK1/2 Western blot; for inhibition at 0.5 µM: MEK1/2 protein phosphorylation, compound 0.5 μM, read-out: Inhibitory rate (%) at 0.5 μM
Procedure: 500 μL of a cell suspension of human colon cancer cell HT-29 (purchased from American Type Culture Collection (ATCC)) was plated in a 48-well plate (100,000 cells/well), and the cells were cultured overnight at 37° C. in the presence of 5% CO2, treated with a test compound (250 μL/well) diluted in 3-fold dilution series and cultured for 2 hrs. After 2 hrs, the culture medium containing the test compound was removed, and the cells were lysed with SDS sample buffer (100 μL/well) and heated at 95° C. for 5 min. Thereafter, the cells lysed with SDS sample buffer were applied to SDS-PAGE, and the protein was transferred onto Sequi-Blot™ PVDF Membrane (Bio-Rad) by the Western blot method. The PDVF membrane was blocked with a Block-Ace solution (Snow Brand Milk Products Co., Ltd) dissolved in phosphate buffered saline (MP Biochemicals) to 5% W/V, and reacted overnight with anti-phosphorylated MEK1/2 (Ser217/221) (Cell signaling #9121) diluted 1000-fold with phosphate buffered saline containing 0.4% Block-Ace. The membrane was washed with phosphate buffered saline containing 0.1% Tween 20 (Wako Pure Chemical Industries, Ltd.), and reacted at room temperature for 1 hr with HRP labeled rabbit IgG polyclonal antibody (Cell signaling #7074) diluted 1000-fold with phosphate buffered saline containing 0.4% Block-Ace. The membrane was washed in the same manner as above, chemical luminescence of a phosphorylated MEK1/2 protein labeled with the antibody, which was caused by ECL-plus Detection Reagent (Amersham bioscience), was detected by Luminescent Image Analyzer LAS-1000 (FUJIFILM Corporation). Taking the luminescence of the control group free of the test compound as 100%, the concentration (IC50 value) of the compound necessary for inhibiting the residual luminescence to 50% of the control group was calculated. In addition, MEK1/2 protein phosphorylation inhibitory rate (%) of the test compound at compound concentration 0.5 μM was calculated by the following formula. The results are shown in Table 2-B. Inhibitory rate (%)=(1−(luminescence of test compound−blank)÷(luminescence of control group−blank))×100

[3] = test system: human colon cancer cell HT-29; assay: Colon cancer cell HT-29 growth suppressive activity in vitro; format: cell-based
Procedure: 100 μL of a cell suspension (3,000 cells/well) of human colon cancer cell HT-29 (purchased from ATCC) was plated in a 96-well plate, and the cells were cultured at 37° C. in the presence of 5% CO2. The next day, 100 μL of culture medium containing each test compound diluted in 2-fold dilution was added, and the cells were cultured for 3 days. The culture medium containing the test compound was removed, and the cells were washed with phosphate buffered saline (MP Biochemicals). A 50% trichloroacetic acid solution was added to the final concentration of 10% (v/v), and the mixture was stood overnight at 4° C., whereby the cells were fixed to the plate. Then, a dye SRB 0.4% (w/v) solution (dissolved in 1% acetic acid) was added at 50 μl/well, whereby the cell protein was fixed and stained (Skehan et al., Journal Of National Cancer Institute, vol. 82, pp. 1107-1112, 1990). The cells were washed 3 times with 1% acetic acid solution (200 μL/well), and 100 μL of an extract (10 mM Tris buffer) was added to extract the dye. The absorbance at an absorption wavelength 550 nm was measured, and cell amount was measured as a protein amount. Taking the protein amount of the control group free of the test compound solution as 100%, the proportion of the residual protein amount of each treatment group was determined and the concentration of the compound necessary for suppressing the residual cell amount to 50% of the control (IC50 value) was calculated. In addition, cell proliferation inhibitory rate (%) of the test compound at compound concentration 10 μM was calculated by the following formula. The results are shown in Table 3-B. Inhibitory rate (%)=(1−(absorbance of test compound−blank)÷(absorbance of control group−blank))×100

pIC50 [2]	pIC50 ([3]; 72 h, HT-29 cells, 3 days culture, SRB staining)	Structure (SMILES)	Inhibitory rate (%) [1] [%]	inhibition at 0.5 µM [2] [%]	inhibition at 10 µM ([3]; HT-29 cell proliferation, compound 10 μM, read-out: Inhibitory rate (%) at 10 μM) [%]
> 6.52	–	CC(C)(C#N)c1cccc(C(=O)Nc2cccc(Oc3ccc4nc(NC(=O)C5CC5)sc4c3C#N)c2)c1Cl [Example 3, 2-chloro-N-[3-({7-cyano-2-[(cyclopropylcarbonyl)amino]-1,3-benzothiazol-6-yl}oxy)phenyl]-3-(1-cyano-1-methylethyl)benzamide]	71	86	–
–	> 6.30	N#Cc1c(Oc2cccc(NC(=O)Cc3cccc(C(F)(F)F)c3)c2)ccc2nc(NC(=O)C3CC3)sc12 [Example 50, N-{7-cyano-6-[3-({[3-(trifluoromethyl)phenyl]acetyl}amino)phenoxy]-1,3-benzothiazol-2-yl}cyclopropanecarboxamide]	76	–	91
> 6.52	–	N#Cc1c(Oc2ccc(F)c(NC(=O)Cc3cccc(C(F)(F)F)c3)c2)ccc2nc(NC(=O)C3CC3)sc12 [Example 53, N-{7-cyano-6-[4-fluoro-3-({[3-(trifluoromethyl)phenyl]acetyl}amino)phenoxy]-1,3-benzothiazol-2-yl}cyclopropanecarboxamide]	88	79	–

Reference: US8497274B2, “Heterocyclic compound and use thereof” (Takeda Pharmaceutical Company Limited, priority 2008, dated 2013)
